Legend:
Conditions in all cases: 0.1 µM; binder
ACVR2B = ACVR2B (Homo sapiens, UniProt Q13705)
AMPK-alpha2 = AMPK-alpha2 (Homo sapiens, UniProt P54646)
ANKK1 = ANKK1 (Homo sapiens, UniProt Q8NFD2)
AURKB = AURKB (Homo sapiens, UniProt Q96GD4)
CDC2L5 = CDC2L5 (Homo sapiens, UniProt Q14004)
CDKL3 = CDKL3 (Homo sapiens, UniProt Q8IVW4)
CHEK2 = CHEK2 (Homo sapiens, UniProt O96017)
DDR2 = DDR2 (Homo sapiens, UniProt Q16832)
DMPK = DMPK (Homo sapiens, UniProt Q09013)
DRAK2 = DRAK2 (Homo sapiens, UniProt O94768)
Chain of DRAK2 (O94768 whole entry): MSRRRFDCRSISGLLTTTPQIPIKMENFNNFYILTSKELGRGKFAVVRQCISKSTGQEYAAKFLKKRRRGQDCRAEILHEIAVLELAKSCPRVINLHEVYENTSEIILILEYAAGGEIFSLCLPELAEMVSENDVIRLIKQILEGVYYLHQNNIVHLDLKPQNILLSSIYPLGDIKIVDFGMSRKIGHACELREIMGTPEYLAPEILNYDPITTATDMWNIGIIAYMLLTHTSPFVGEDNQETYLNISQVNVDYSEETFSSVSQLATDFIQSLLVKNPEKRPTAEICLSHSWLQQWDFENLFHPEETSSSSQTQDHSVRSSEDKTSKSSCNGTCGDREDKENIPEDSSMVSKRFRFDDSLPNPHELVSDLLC

EGFR(G719C) = EGFR(G719C) (Homo sapiens, UniProt P00533, G719C)
EPHA5 = EPHA5 (Homo sapiens, UniProt P54756)
EPHB4 = EPHB4 (Homo sapiens, UniProt P54760)
ERK2 = ERK2 (Homo sapiens, UniProt P28482)
FGFR4 = FGFR4 (Homo sapiens, UniProt P22455)
FLT3(D835V) = FLT3(D835V) (Homo sapiens, UniProt P36888, D835V)
LRRK2 = LRRK2 (Homo sapiens, UniProt Q5S007)
Chain of LRRK2 (Q5S007 whole entry): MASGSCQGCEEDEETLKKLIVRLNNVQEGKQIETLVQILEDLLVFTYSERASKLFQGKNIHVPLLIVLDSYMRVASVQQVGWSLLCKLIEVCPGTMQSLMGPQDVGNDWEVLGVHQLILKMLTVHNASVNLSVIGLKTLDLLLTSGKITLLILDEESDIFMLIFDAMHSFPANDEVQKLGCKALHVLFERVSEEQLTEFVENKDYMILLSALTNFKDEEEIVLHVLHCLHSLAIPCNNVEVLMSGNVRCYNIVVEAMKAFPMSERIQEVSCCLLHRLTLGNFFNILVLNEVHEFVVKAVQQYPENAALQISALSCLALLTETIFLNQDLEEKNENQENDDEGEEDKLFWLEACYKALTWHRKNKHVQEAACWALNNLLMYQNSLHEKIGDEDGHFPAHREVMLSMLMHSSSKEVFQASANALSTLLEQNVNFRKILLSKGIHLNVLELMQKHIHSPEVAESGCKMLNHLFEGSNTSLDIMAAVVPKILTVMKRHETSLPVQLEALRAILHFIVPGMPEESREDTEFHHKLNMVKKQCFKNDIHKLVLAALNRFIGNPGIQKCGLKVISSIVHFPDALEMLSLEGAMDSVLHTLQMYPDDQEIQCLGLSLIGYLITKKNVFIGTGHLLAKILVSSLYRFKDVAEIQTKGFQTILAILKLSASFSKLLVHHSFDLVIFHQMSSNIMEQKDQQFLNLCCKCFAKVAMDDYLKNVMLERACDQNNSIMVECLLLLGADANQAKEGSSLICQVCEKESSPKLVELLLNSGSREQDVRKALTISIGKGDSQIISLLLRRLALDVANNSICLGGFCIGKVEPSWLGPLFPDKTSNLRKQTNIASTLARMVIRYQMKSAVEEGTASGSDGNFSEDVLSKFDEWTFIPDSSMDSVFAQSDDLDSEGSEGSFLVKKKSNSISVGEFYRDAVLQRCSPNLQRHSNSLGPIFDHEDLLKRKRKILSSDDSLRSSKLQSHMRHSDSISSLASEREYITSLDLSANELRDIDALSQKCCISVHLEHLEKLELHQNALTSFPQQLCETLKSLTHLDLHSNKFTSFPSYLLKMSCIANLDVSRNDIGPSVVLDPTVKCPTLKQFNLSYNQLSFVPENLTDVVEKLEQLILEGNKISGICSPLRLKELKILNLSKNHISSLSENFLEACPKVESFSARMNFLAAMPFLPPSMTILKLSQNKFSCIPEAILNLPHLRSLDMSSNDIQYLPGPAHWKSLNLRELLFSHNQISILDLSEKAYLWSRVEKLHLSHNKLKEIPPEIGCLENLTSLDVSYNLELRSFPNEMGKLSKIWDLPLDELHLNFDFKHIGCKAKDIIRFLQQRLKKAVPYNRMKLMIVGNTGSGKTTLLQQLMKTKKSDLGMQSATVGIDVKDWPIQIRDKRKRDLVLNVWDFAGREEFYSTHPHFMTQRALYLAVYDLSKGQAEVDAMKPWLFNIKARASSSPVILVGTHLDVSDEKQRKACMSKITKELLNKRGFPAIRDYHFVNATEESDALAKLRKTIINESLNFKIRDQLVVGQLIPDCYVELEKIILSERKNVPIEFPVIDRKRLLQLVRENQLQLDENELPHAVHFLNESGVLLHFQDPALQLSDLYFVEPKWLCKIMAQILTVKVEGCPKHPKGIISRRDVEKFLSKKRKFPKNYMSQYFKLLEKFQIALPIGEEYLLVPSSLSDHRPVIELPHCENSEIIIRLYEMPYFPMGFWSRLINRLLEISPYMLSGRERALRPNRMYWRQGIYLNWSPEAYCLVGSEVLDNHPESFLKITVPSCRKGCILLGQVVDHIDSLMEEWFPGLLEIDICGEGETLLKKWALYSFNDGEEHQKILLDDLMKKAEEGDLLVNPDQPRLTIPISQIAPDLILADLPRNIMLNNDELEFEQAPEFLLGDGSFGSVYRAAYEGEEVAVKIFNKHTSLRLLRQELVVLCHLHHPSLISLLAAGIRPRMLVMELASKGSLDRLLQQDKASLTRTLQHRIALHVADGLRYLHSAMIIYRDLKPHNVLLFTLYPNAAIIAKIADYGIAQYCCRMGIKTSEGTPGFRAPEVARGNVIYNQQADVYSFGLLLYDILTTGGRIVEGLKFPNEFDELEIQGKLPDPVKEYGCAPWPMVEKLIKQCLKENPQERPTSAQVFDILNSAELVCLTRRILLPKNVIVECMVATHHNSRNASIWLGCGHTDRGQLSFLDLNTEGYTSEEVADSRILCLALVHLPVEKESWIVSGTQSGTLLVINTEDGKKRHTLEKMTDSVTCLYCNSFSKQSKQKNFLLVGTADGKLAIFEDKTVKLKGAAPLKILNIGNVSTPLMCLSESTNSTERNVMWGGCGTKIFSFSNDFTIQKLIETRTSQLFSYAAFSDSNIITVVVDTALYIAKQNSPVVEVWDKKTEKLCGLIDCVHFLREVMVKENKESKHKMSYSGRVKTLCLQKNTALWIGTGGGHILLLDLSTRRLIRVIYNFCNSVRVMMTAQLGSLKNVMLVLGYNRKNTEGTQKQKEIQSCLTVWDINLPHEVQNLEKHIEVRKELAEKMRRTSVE

MAK = MAK (Homo sapiens, UniProt P20794)
Chain of MAK (P20794 whole entry): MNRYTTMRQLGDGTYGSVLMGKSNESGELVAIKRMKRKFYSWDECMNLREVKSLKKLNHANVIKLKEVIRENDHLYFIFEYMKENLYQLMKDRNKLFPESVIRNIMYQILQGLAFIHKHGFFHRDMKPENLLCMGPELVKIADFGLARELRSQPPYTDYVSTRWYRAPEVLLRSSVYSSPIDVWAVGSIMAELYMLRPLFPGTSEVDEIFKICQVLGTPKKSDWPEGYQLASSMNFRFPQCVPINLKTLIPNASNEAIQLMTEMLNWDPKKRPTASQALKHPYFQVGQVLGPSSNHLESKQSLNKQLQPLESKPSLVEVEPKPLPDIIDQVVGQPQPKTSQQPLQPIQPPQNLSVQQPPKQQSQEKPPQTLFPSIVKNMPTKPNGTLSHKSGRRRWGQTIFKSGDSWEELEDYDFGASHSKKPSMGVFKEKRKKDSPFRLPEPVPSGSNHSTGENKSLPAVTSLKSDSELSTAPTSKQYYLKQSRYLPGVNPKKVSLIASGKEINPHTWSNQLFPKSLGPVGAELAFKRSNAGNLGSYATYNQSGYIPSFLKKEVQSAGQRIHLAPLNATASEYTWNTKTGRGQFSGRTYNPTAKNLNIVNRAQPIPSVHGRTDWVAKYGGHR

MYO3B = MYO3B (Homo sapiens, UniProt Q8WXR4)
PIK3C2B = PIK3C2B (Homo sapiens, UniProt O00750)
PIK3CA(I800L) = PIK3CA(I800L) (Homo sapiens, UniProt P42336, I800L)
PIK3CG = PIK3CG (Homo sapiens, UniProt P48736)
PIP5K1A = PIP5K1A (Homo sapiens, UniProt Q99755)
PNCK = PNCK (Homo sapiens, UniProt Q6P2M8)
PRKD1 = PRKD1 (Homo sapiens, UniProt Q15139)
Chain of PRKD1 (Q15139 whole entry): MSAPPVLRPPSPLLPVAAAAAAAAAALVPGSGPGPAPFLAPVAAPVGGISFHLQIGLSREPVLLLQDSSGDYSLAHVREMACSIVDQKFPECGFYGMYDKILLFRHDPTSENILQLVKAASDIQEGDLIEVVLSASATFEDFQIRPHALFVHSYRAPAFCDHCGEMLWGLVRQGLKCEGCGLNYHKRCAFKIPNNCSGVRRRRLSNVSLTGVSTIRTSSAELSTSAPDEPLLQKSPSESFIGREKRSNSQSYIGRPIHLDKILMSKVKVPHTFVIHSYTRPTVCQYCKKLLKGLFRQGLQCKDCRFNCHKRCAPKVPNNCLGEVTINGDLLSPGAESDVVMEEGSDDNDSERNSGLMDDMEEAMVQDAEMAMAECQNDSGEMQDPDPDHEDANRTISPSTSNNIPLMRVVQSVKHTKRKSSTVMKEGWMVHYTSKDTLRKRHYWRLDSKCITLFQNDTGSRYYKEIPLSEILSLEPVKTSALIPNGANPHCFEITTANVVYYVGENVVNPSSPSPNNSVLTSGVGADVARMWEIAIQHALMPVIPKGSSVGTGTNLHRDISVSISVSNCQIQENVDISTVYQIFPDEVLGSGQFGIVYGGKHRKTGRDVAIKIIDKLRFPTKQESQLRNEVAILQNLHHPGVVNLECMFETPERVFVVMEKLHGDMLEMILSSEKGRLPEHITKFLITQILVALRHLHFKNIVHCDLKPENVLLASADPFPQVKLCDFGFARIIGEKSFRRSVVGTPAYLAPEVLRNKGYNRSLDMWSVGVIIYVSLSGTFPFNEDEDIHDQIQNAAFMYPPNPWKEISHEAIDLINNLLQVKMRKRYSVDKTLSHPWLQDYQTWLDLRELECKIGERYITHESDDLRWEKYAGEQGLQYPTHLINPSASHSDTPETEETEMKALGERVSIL

PRKG2 = PRKG2 (Homo sapiens, UniProt Q13237)
ROCK2 = ROCK2 (Homo sapiens, UniProt O75116)
SRPK2 = SRPK2 (Homo sapiens, UniProt P78362)
STK35 = STK35 (Homo sapiens, UniProt Q8TDR2)
WNK2 = WNK2 (Homo sapiens, UniProt Q9Y3S1)
YES = YES (Homo sapiens, UniProt P07947)

Chain of AMPK-alpha2 (P54646 whole entry): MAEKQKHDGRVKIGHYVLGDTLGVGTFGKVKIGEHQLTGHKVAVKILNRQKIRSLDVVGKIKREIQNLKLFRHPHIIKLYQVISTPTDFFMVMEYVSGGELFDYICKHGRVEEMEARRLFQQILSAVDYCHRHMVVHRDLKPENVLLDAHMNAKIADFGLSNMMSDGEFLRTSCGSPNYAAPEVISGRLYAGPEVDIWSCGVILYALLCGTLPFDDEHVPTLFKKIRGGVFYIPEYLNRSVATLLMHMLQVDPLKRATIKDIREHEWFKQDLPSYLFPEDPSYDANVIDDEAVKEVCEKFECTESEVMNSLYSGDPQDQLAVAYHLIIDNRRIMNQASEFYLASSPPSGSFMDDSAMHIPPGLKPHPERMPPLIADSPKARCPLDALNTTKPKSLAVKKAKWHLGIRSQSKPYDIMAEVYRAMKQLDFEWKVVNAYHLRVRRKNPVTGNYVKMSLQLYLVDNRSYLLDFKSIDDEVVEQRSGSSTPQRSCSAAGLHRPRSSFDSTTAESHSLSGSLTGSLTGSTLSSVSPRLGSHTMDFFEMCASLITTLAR

## CNc1ncc2cc(-c3ccc(-c4cccc(C)n4)cc3Cl)c(=O)n(C[C@H]3OC[C@H](N)CO3)c2n1 [compound 6, G-5555]
ACVR2B
  Percent Control: 100%
AMPK-alpha2
  Percent Control: 93%
ANKK1
  Percent Control: 91%
AURKB
  Percent Control: 72%
CDC2L5
  Percent Control: 79%
CDKL3
  Percent Control: 89%
CHEK2
  Percent Control: 100%
DDR2
  Percent Control: 88%
DMPK
  Percent Control: 100%
DRAK2
  Percent Control: 66%
EGFR(G719C)
  Percent Control: 100%
EPHA5
  Percent Control: 100%
EPHB4
  Percent Control: 100%
ERK2
  Percent Control: 100%
FGFR4
  Percent Control: 100%
FLT3(D835V)
  Percent Control: 85%
LRRK2
  Percent Control: 83%
MAK
  Percent Control: 90%
MYO3B
  Percent Control: 48%
PIK3C2B
  Percent Control: 88%
PIK3CA(I800L)
  Percent Control: 87%
PIK3CG
  Percent Control: 87%
PIP5K1A
  Percent Control: 48%
PNCK
  Percent Control: 97%
PRKD1
  Percent Control: 68%
PRKG2
  Percent Control: 86%
ROCK2
  Percent Control: 94%
SRPK2
  Percent Control: 98%
STK35
  Percent Control: 100%
WNK2
  Percent Control: 100%
YES
  Percent Control: 100%
